According to patent US12319696B2, “2,6-dimethyl-n-((pyridin-4-yl)methyl)imidazo[1,2-b]pyridazin-8-amine and 2,5-dimethyl-n-[(pyridin-4-yl)methyl]pyrazolo[1,5-a]pyrimidin-7-amine derivatives for treating viral infections” (CUROVIR AB, priority 2018, dated 2025):

Legend:
[1] = in vivo; set-up: species or system Sprague Dawley rats; settings: male, Sprague Dawley, rat, po, 10 mg/kg
Description: 10 mg of the compound was weighed and transferred to graduated tube. Then 500 μL of DMA (5% v/v) was added, vortex mixed thoroughly and sonicated till test item was completely dissolved. Then 5 mL of PEG 200 (50% v/v) were added, and vortex mixed thoroughly. Thereafter, Sterile Water for Injection (SWFI) was added in small increments and vortex mixed thoroughly. Finally, the volume was made up to 10 mL with SWFI (45% v/v) to obtain a clear solution with final formulation strength of 1 mg/mL. […] Formulation was freshly prepared before the administration to animals. Adult healthy male Sprague Dawley rats aged 8-10 weeks were used for experimentation after a minimum 3 days of acclimation. Fasted animals were administered with test compound in recommended vehicle (5% DMA+50% PEG 200+45% SWFI) by oral route at a dose of 10 mg/kg body weight and at dose volume of 10 mL/kg body weight. Under mild isoflurane anesthesia, blood specimens were collected into pre-labeled tubes containing anticoagulant (K2EDTA—2 mg/mL blood) at different time points post dose.

[2] = Human plasma protein binding (Rapid Equilibrium Dialysis); type: in vitro ADME; settings: pH 7.4, RED device, 37° C.
Description: (§1) Plasma protein binding study was performed using a Rapid Equilibrium Dialysis (RED) device containing dialysis membrane with a molecular weight cut-off of 8,000 Daltons. Each dialysis insert contained two chambers. The red chamber was for the plasma while the white chamber was for the buffer. Test items and Control items (Warfarin and Propranolol) were prepared at a required test concentration of 10 μM in Human/Rat plasma (pH adjusted to 7.40) using 10 mM DMSO stocks (final DMSO concentration was 0.1%). 300 μL of plasma sample was added into the sample chamber. 500 μL of buffer was added into the buffer chamber. After sealing the RED device with an adhesive film, incubation was done at 37° C. with shaking at 300 rpm for 4 h. Following incubation, an aliquot of 50 μL was removed from each well (plasma and buffer side) and diluted with equal volume of opposite matrix to nullify the matrix effect and subjected for sample extraction.
(§2) All samples were extracted by Protein Precipitation method by adding 200 μL of ice cold Acetonitrile and 50 μL of internal standard (Haloperidol at 0.1 μg/mL) solution. The tubes were vortex mixed thoroughly and centrifuged at 10000 rpm, 4° C. for 10 minutes. A clear supernatant of 200 μL of samples were submitted for LC-MS/MS analysis.

[3] = system: enterovirus strain 71; assay: Antiviral CPE inhibition assay in mammalian cell culture, EV71; type: cell-based; settings: inhibition of viral CPE; for inhibition at 0.01 µM: 10 nM, read-out: Inh. at 10 nM, EV71; for inhibition at 0.1 µM: 100 nM, read-out: Inh. at 100 nM, EV71
[4] = system: enterovirus D68; assay: Antiviral CPE inhibition assay in mammalian cell culture, EV-D68; type: cell-based; settings: Enterovirus D, EVD68, inhibition of viral CPE; for inhibition at 0.01 µM: 10 nM, read-out: Inh. at 10 nM, EV-D68; for inhibition at 0.1 µM: 100 nM, read-out: Inh. at 100 nM, EV-D68
[5] = Metabolic stability in human liver microsomes; type: in vitro ADME; settings: 5 μM test item, 0.25 mg/mL microsomal protein
Description: (§3) Metabolic stability assay was carried out using Human/Rat liver microsomes. […] Test item/Control items were incubated with Human/Rat liver microsomes with cofactors and without cofactors. The reaction mixture (100 μL) was removed at specified time period and the reaction was stopped by addition of stop solution. The samples were extracted in presence of internal standard and were analyzed using LC-MS/MS. The percent of the test/Control item remaining after specified incubation period was calculated with respect to the peak area ratio at time 0 min. […] The reaction mixture was incubated further at 37° C. for specified incubation time points (With Cofactors: 0, 15, 30, 60 and 120 min; Without Cofactors: 0 and 120 min). 100 μL incubation samples of test items and Control items at specified incubation time points were transferred to respective tubes for sample extraction. Test and Control item specimens were extracted by Protein precipitation method. A 100 μL incubation sample at each time point was added to tubes containing 200 μL of ice-cold acetonitrile and 50 μL Haloperidol solution (0.5 μg/mL). Then the tubes were vortex mixed thoroughly and centrifuged at 10000 rpm for 10 minutes at 4° C. A clear supernatant of 200 μL of samples were submitted for LC-MS/MS analysis.

[6] = system: coxsackie B virus strain 3; assay: Antiviral CPE inhibition assay in mammalian cell culture, Cox B3; type: cell-based; settings: for inhibition at 0.01 µM: read-out: Inh. at 10 nM, Cox B3; for inhibition at 0.1 µM: read-out: Inh. at 100 nM, Cox B3
[7] = system: polio virus strain 1; assay: organism not typed; type: cell-based; settings: for inhibition at 0.01 µM: read-out: Inh. at 10 nM, Polio 1; for inhibition at 0.1 µM: read-out: Inh. at 100 nM, Polio 1
[8] = Rat plasma protein binding (Rapid Equilibrium Dialysis); type: in vitro ADME; settings: pH 7.4, RED device, 37° C.
Description: as §1, §2

[9] = system: coxsackie B virus strain 1; assay: Antiviral CPE inhibition assay in mammalian cell culture, Cox B1; type: cell-based; settings: for inhibition at 0.01 µM: read-out: Inh. at 10 nM, Cox B1; for inhibition at 0.1 µM: read-out: Inh. at 100 nM, Cox B1
[10] = system: coxsackie B virus strain 2; assay: Antiviral CPE inhibition assay in mammalian cell culture, Cox B2; type: cell-based; settings: for inhibition at 0.01 µM: read-out: Inh. at 10 nM, Cox B2; for inhibition at 0.1 µM: read-out: Inh. at 100 nM, Cox B2
[11] = Metabolic stability in rat liver microsomes; type: in vitro ADME; settings: 5 μM test item, 0.25 mg/mL microsomal protein
Description: as §3

[12] = system: enterovirus strain 30; assay: Antiviral CPE inhibition assay in mammalian cell culture, EV30; type: cell-based; settings: inhibition of viral CPE; for inhibition at 0.01 µM: 10 nM, read-out: Inh. at 10 nM, EV30; for inhibition at 0.1 µM: 100 nM, read-out: Inh. at 100 nM, EV30
[13] = target: T1, CYP3A4 (Homo sapiens, UniProt P08684); assay: In vitro CYP 3A4 enzyme inhibition in human liver microsomes by probe substrate method; type: in vitro ADME; settings: human liver microsomes 0.5 mg/mL; probe substrate Midazolam 5 μM
T1 construct: from tissue; host or cells: human liver microsomes
T1 sequence (P08684 whole entry): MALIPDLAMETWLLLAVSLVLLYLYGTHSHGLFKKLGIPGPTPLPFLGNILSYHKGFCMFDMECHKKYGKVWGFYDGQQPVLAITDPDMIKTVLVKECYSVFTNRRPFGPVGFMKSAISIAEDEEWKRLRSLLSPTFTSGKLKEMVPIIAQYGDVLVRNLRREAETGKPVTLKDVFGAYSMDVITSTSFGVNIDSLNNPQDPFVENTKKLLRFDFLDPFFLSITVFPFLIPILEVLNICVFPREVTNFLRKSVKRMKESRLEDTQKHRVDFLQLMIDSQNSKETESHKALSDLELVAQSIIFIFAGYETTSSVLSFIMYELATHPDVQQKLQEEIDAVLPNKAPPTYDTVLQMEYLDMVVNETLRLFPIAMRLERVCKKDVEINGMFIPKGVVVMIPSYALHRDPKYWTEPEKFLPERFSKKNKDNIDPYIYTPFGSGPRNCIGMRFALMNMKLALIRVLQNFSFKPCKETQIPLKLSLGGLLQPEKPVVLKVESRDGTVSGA
Description: In Vitro CYP 3A4 Enzyme Inhibition Study in Human Liver Microsomes by Probe Substrate Method
In vitro CYP3A4 enzyme inhibition assay was performed using Human liver microsomes at 0.5 mg/mL concentration. Ketoconazole was used as reference inhibitor and Midazolam was used as selective probe substrate for CYP 3A4 enzyme. Serial dilution of test/control items was prepared in potassium phosphate buffer (50 mM, pH 7.40) to obtain eight concentrations each in a 1:4 dilution pattern. The percentage of acetonitrile/DMSO was maintained at 2.5%/0.25% in 2.5× serially diluted control/test item solutions respectively. The final percentage of acetonitrile/DMSO was 1%/0.1% respectively. Intermediate solutions such as 10× working solution (5 mg/mL) of Human liver microsomal solution, 10× concentration of reference probe substrates in buffer, 5× concentrations of Cofactors (5.0 mM NADP+, 25.0 mM G-6-P, 3.0 IU/mL G-6-PDH and 10.0 mM MgCl2) were prepared in potassium phosphate buffer. The final concentration of liver microsomes in the reaction mixture was 0.5 mg/mL, cofactors was 1.0 mM NADP+, 5.0 mM G-6-P, 0.6 IU/mL G-6-PDH and 2.0 mM MgCl2. Midazolam was tested at 5 μM test concentration. 40 μL of 2.5× serially diluted test/control item solutions and 10 μL of […] liver microsomal solution were added to 96 well plate and incubated for 10 min at 37° C. with shaking condition (400 rpm) using Thermomixer. After pre incubation, 20 μL of potassium phosphate buffer, 10 μL of respective probe substrate working solution and 20 μL of cofactor mix was added.

[14] = system: enterovirus strain 6; assay: microbe, parasite or virus in culture; type: cell-based; settings: inhibition of viral CPE; for inhibition at 0.01 µM: 10 nM, read-out: Inh. at 10 nM, EV6; for inhibition at 0.1 µM: 100 nM, read-out: Inh. at 100 nM, EV6
[15] = system: coxsackie B virus strain 5; assay: Antiviral CPE inhibition assay in mammalian cell culture, Cox B5; type: cell-based; settings: for inhibition at 0.01 µM: read-out: Inh. at 10 nM, Cox B5; for inhibition at 0.1 µM: read-out: Inh. at 100 nM, Cox B5

| Compound | fraction unbound at 4 h, 10 μM [2] | inhibition at 0.01 µM [3] [%] | inhibition at 0.1 µM [3] [%] | inhibition at 0.01 µM [4] [%] | inhibition at 0.1 µM [4] [%] | inhibition at 0.01 µM [6] [%] | inhibition at 0.1 µM [6] [%] | inhibition at 0.01 µM [7] [%] | inhibition at 0.1 µM [7] [%] | inhibition at 0.01 µM [9] [%] | inhibition at 0.1 µM [9] [%] | inhibition at 0.01 µM [10] [%] | inhibition at 0.1 µM [10] [%] | inhibition at 0.01 µM [12] [%] | inhibition at 0.1 µM [12] [%] | IC50 [13] [µM] | inhibition at 0.01 µM [14] [%] | inhibition at 0.1 µM [14] [%] | inhibition at 0.01 µM [15] [%] | inhibition at 0.1 µM [15] [%] | further results |
| --- | --- | --- | --- | --- | --- | --- | --- | --- | --- | --- | --- | --- | --- | --- | --- | --- | --- | --- | --- | --- | --- |
| Cc1cc(NCc2ccncc2)n2nc(C)c(-c3ccc4c(c3)c(C)nn4C)c2n1 [Comp. Y, 3-(1,3-dimethyl-1H-indazol-5-yl)-2,5-dimethyl-N-[(pyridin-4-yl)methyl]pyrazolo[1,5-a]pyrimidin-7-amine, reference compound] | 0.027 | 87 | 86 | 85 | 80 | 100 | 100 | 100 | 100 | 100 | 100 | 100 | 100 | 100 | 100 | 0.28 | 100 | 100 | 85 | 100 | AUC(0-inf) [1]: 15500 ± 1900 ng·h/mL; AUC(0-t) [1]: 14800 ± 2600 ng·h/mL; AUCextrap [1]: 4.6 ± 5.6%; Cmax [1]: 2300 ± 300 ng/mL; MRT last [1]: 4.4 ± 1.1 h; Tmax [1]: 1.2 ± 0.8 h; half-life [1]: 3.4 ± 1.2 h; % remaining after incubation for 60 min, Human microsomes [5]: 86.2%; fraction unbound at 4 h, 10 μM [8]: 0.024; % remaining after incubation for 60 min, Rat microsomes [11]: 89.7% |
| COc1ccc(-c2c(C)nc3c(NCc4ccnc(C)c4)cc(C)nn23)cc1OC [Ex. 1, 3-(3,4-dimethoxyphenyl)-2,6-dimethyl-N-((2-methylpyridin-4-yl)methyl)imidazo[1,2-b]pyridazin-8-amine] | – | 68 | 77 | 85 | 83 | 100 | 100 | 100 | 100 | 93 | 100 | 100 | 100 | 100 | 100 | 23.1 | 100 | 100 | 80 | 100 | – |
| Cc1cc(NCc2ccnc(F)c2)n2nc(C)c(-c3ccc4c(c3)c(C)nn4C)c2n1 [Ex. 3, 3-(1,3-dimethyl-1H-indazol-5-yl)-2,5-dimethyl-N-[(2-fluoropyridin-4-yl)methyl]pyrazolo[1,5-a]pyrimidin-7-amine] | 0.022 | 82 | 81 | 76 | 70 | 100 | 100 | 100 | 100 | 68 | 100 | 100 | 100 | 100 | 100 | > 25 | 88 | 100 | 48 | 100 | % remaining after incubation for 60 min, Human microsomes [5]: 96.1%; fraction unbound at 4 h, 10 μM [8]: 0.059; % remaining after incubation for 60 min, Rat microsomes [11]: 99.4% |
| COc1ccc(-c2c(C)nn3c(NCc4ccncc4)cc(C)nc23)cc1OC [X, 3-(3,4-dimethoxyphenyl)-2,5-dimethyl-N-(pyridin-4-ylmethyl)pyrazolo[1,5-a]pyrimidin-7-amine, reference compound] | – | 82 | 82 | 86 | 86 | 100 | 100 | 100 | 100 | 100 | 100 | 100 | 100 | 100 | 100 | 0.97 | 100 | 100 | 100 | 100 | – |
| COc1ccc(-c2c(C)nc3c(NCc4ccnc(F)c4)cc(C)nn23)cc1OC [compound 2, 3-(3,4-dimethoxyphenyl)-N-((2-fluoropyridin-4-yl)methyl)-2,6-dimethylimidazo[1,2-b]pyridazin-8-amine] | – | 76 | 75 | 73 | 68 | 100 | 100 | 100 | 100 | 100 | 100 | 100 | 100 | 100 | 100 | > 25 | 100 | 100 | 84 | 100 | – |
